Data from patent US20110209228A1, “METHOD OF TREATMENT USING ANTIMICROBIAL COMPOSITION” (priority 2008, published 2011).

Tested on: E. coli TOP10
Experiment: growth inhibition screen by expression of the peptide in host bacteria (pBAD/gIIIA, L-arabinose induction, OD600)
Assay type: cell-based
Details: E. coli TOP10, OD600 before and 4 hours after L-arabinose induction

Row | Substance | antimicrobial activity: inhibiting bacterial growth and/or killing bacteria on expression (in words)
1 | B1: peptide by mutagenesis based on a consensus sequence for antimicrobial C-terminal fragments of cathelicidin proteins (MVLGDLLRRVGGKFEEFFGKIRETIRTIRICSHLLLRGSSRSAAGTIWEFEAF; Antimicrobial peptide B1) | having antimicrobial activity
2 | A4: antimicrobial peptide produced by mutagenesis based on SEQ ID NO: 7 and/or 8 (MVKRGFGKNLRRRPTKFRNSIRNRLKNFNIEFPVPRQG; Antimicrobial peptide A4) | having antimicrobial activity
3 | F7: peptide by mutagenesis based on a consensus sequence for antimicrobial C-terminal fragments of cathelicidin proteins (MVLGGFSRCRWLEEKLRDFMKNLVVRIAG; Antimicrobial peptide F7) | having antimicrobial activity
4 | 13: antimicrobial peptide produced by mutagenesis based on SEQ ID NO: 7 and/or 8 (MVKRGFWKSLKRKLKKFGMILGID; Antimicrobial peptide 13) [compound 13] | having antimicrobial activity
5 | 10: antimicrobial peptide produced by mutagenesis based on SEQ ID NO: 7 and/or 8 (MVKRGFGKRLRKRPKKFRNSIKKRLKNFNVVFPVPRPG; antimicrobial peptide A12) [compound 10] | having antimicrobial activity
6 | 28: antimicrobial peptide produced by mutagenesis based on SEQ ID NO: 7 and/or 8 (chain 1 MVLGGFSRCRWLEEKLRDFMKNLVVRIAG; chain 2 MVKRGLGEKLRRRPKKFGIVLGIH; Antimicrobial peptide F7; Antimicrobial peptide 28) [compound 28] | having antimicrobial activity
7 | A11: antimicrobial peptide produced by mutagenesis based on SEQ ID NO: 7 and/or 8 (MVKRGFGKKLRKRATKFRNSIRKRLKNFNIIFPVPRQG; Antimicrobial peptide A11) | having antimicrobial activity
8 | F12: peptide by mutagenesis based on a consensus sequence for antimicrobial C-terminal fragments of cathelicidin proteins (MVIGDRFKKFRERLVELRGRNGARLRPLMNIMGGRSAG; Antimicrobial peptide F12) | having antimicrobial activity
9 | A12: antimicrobial peptide produced by mutagenesis based on SEQ ID NO: 7 and/or 8 (MVKRGFGKRLRKRPKKFRNSIKKRLKNFNVVFPVPRPG; antimicrobial peptide A12) | having antimicrobial activity
10 | F4: peptide by mutagenesis based on a consensus sequence for antimicrobial C-terminal fragments of cathelicidin proteins (MVLGGRSGKVRERFRRIFERYEAKIRTFMEILAAPSQD; Antimicrobial peptide F4) | having antimicrobial activity
11 | H6: peptide by mutagenesis based on a consensus sequence for antimicrobial C-terminal fragments of cathelicidin proteins (MVIGDCLRRVRGSLENTVRDLNQGLGILRLRW; Antimicrobial peptide H6) | having antimicrobial activity
12 | A10: antimicrobial peptide produced by mutagenesis based on SEQ ID NO: 7 and/or 8 (MVKRGFGKKLKKKAKKFRNSIRKRLKNFNVKIPVPLPG; Antimicrobial peptide A10) | having antimicrobial activity
13 | 5: antimicrobial peptide produced by mutagenesis based on SEQ ID NO: 7 and/or 8 (chain 1 SSRSAAGTIWEFEAF; chain 2 MVKRGLGKNLKRRATKIGNGIKNTLRNFNVVFPIPRPG; Consensus sequence of antimicrobial peptide; Antimicrobial peptide 5) [compound 5] | having antimicrobial activity
14 | F6: peptide by mutagenesis based on a consensus sequence for antimicrobial C-terminal fragments of cathelicidin proteins (MVLRGFLKRFGGKILRNRGRDGATLKDFLKMIATRIPH; Antimicrobial peptide F6) | having antimicrobial activity
15 | A6: antimicrobial peptide produced by mutagenesis based on SEQ ID NO: 7 and/or 8 (MVKRGLGKKLKKKPKKFRNSIKKRLKNFNIEIPIPRQG; Antimicrobial peptide A6) | having antimicrobial activity
16 | G10: peptide by mutagenesis based on a consensus sequence for antimicrobial C-terminal fragments of cathelicidin proteins (MVIRGLLKRGKGRILGLLGRNGKRLRAIMDMFRRRSQQ; Antimicrobial peptide G10) | having antimicrobial activity
17 | 20: antimicrobial peptide produced by mutagenesis based on SEQ ID NO: 7 and/or 8 (MVKRGFGESLRRRVTKLRDDIKKH; Antimicrobial peptide 20) [compound 20] | having antimicrobial activity
18 | E3: peptide by mutagenesis based on a consensus sequence for antimicrobial C-terminal fragments of cathelicidin proteins (MVLGGCLRKGGGRLVGMFGRFRATLKNLLDMLGRRIEG; Antimicrobial peptide E3) | having antimicrobial activity
19 | G9: peptide by mutagenesis based on a consensus sequence for antimicrobial C-terminal fragments of cathelicidin proteins (MVLGGFLRNVRWEIWKKGLSLFCQISYFVVRSSSRSAAGTIWEFEAF; Antimicrobial peptide G9) | having antimicrobial activity
20 | A5: antimicrobial peptide produced by mutagenesis based on SEQ ID NO: 7 and/or 8 (MVKRGFWKKLKRKAKKFRNSIRKTLKNFNIIIPVPLPG; Antimicrobial peptide A5) | having antimicrobial activity
